In data set [1] the test system is ECa-109 cell line. Put plainly: Cytotoxicity against vincristine resistant human Eca-109 cells incubated for 48 hrs by CCK-8 method relative to control. In kind it is functional. Further details: concentration or dose not given beside the values. A general note: Tetrazolium dyes change colour on reduction, which living cells bring about; call rule not given here.
For data set [2], the system named is ECa-109 cell line. Nature of the data set: Reversal of vincristine-resistance in human Eca-109 cells assessed as fold reversal by measuring cell viability incubated for 48 hrs by CCK-8 method relative to vincristine alone. In kind it is functional.
Data set [3] relates to ECa-109 cell line. Put plainly: Reversal of VCR -resistance in human Eca-109 cells assessed as cell viability at 5 uM incubated for 48 hrs by CCK-8 method (reference value: 6830.0+/-537.0 nM). The following applies: ECa-109, 48 h. In kind it is functional, cell-based.
Data set [4] concerns ECa-109 cell line. Put plainly: Reversal of vincristine-resistance in human Eca-109 cells assessed as fold reversal by measuring cell viability at 5 uM incubated for 48 hrs by CCK-8 method relative to vincristine alone. In kind it is functional.
The target in data set [5] is ATP-dependent translocase ABCB1 (Homo sapiens, UniProt P08183). Put plainly: Binding affinity to P-gp in vincristine resistant human Eca-109 cells assessed as stabilization of protein at 67 degree C at 100 uM incubated for 30 mins by thermal shift assay. The class given is cell-based. The following applies: eca-109, 0.5 h.
Sequence of ATP-dependent translocase ABCB1 (P08183 whole entry): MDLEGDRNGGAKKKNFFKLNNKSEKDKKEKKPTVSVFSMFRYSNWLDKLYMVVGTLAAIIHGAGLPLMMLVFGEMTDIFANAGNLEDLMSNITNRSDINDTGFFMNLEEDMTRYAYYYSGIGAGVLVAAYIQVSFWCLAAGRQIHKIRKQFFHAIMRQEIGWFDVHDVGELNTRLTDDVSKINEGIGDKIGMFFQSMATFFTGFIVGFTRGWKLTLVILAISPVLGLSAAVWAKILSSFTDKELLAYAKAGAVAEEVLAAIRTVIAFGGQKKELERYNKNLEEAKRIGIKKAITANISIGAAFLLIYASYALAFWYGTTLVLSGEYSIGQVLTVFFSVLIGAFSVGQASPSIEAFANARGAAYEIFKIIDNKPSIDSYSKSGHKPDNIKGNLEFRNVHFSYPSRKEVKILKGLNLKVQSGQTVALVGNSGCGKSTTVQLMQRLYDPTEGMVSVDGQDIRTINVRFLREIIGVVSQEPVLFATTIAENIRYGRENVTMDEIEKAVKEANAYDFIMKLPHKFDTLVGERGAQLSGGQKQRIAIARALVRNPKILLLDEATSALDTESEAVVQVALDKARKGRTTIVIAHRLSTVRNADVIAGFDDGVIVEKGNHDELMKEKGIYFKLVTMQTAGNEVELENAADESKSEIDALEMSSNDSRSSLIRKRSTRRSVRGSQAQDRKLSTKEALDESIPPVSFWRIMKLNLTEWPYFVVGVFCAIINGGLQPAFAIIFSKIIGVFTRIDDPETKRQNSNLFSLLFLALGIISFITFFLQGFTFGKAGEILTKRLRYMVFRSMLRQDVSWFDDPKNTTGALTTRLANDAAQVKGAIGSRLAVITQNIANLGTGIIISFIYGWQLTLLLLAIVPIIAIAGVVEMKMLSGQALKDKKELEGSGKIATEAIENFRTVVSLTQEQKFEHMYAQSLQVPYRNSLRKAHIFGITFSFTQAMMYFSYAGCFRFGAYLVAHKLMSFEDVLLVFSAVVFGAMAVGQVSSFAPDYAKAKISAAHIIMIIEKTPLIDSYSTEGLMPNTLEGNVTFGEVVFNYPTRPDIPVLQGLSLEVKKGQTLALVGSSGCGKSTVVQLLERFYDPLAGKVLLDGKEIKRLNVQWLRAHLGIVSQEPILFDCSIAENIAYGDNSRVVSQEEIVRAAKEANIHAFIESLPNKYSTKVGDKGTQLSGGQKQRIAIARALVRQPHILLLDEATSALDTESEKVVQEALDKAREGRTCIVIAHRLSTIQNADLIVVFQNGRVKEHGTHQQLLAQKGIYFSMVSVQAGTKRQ
Data set [6] concerns ECa-109 cell line. Put plainly: Induction of apoptosis in vincristine resistant human Eca-109 cells assessed as viable cells at 5 uM incubated for 24 hrs by AnnexinV-FITC/PI staining based flow cytometric analysis (reference value: 90.3%). The class given is functional. The following applies: read-out: Activity. For orientation: Flow cytometry measures light scatter and fluorescence of single cells or particles in a stream.

Data set [7] concerns ECa-109 cell line. Nature of the data set: Induction of apoptosis in vincristine resistant human Eca-109 cells assessed as early apoptotic cells at 5 uM incubated for 24 hrs by AnnexinV-FITC/PI staining based flow cytometric analysis (reference value: 2.30%). The class given is functional.
Data set [8] concerns ECa-109 cell line. Nature of the data set: Induction of apoptosis in vincristine resistant human Eca-109 cells assessed as late apoptotic cells at 5 uM incubated for 24 hrs by AnnexinV-FITC/PI staining based flow cytometric analysis (reference value: 7.19%). In kind it is functional.
Data set [9] deals with ECa-109 cell line. Nature of the data set: Induction of apoptosis in vincristine resistant human Eca-109 cells assessed as necrotic cells at 5 uM incubated for 24 hrs by AnnexinV-FITC/PI staining based flow cytometric analysis (reference value: 0.25%). The class given is functional.
Data set [10] has as its system ECa-109 cell line. Put plainly: Induction of apoptosis in vincristine resistant human Eca-109 cells assessed as viable cells at 5 uM incubated for 24 hrs in presence of vincristine by AnnexinV-FITC/PI staining based flow cytometric analysis (reference value: 89.2%). The class given is functional. The following applies: read-out: Activity.
Data set [11] has as its system ECa-109 cell line. Put plainly: Induction of apoptosis in vincristine resistant human Eca-109 cells assessed as early apoptotic cells at 5 uM incubated for 24 hrs in presence of vincristine by AnnexinV-FITC/PI staining based flow cytometric analysis (reference value: 4.43%). The class given is functional.
Data set [12] relates to ECa-109 cell line. Put plainly: Induction of apoptosis in vincristine resistant human Eca-109 cells assessed as late apoptotic cells at 5 uM incubated for 24 hrs in presence of vincristine by AnnexinV-FITC/PI staining based flow cytometric analysis (reference value: 6.01%). In kind it is functional.
The test system of data set [13] is ECa-109 cell line. Nature of the data set: Induction of apoptosis in vincristine resistant human Eca-109 cells assessed as necrotic cells at 5 uM incubated for 24 hrs in presence of vincristine by AnnexinV-FITC/PI staining based flow cytometric analysis (reference value: 0.35%). In kind it is functional.
A short description of data set [14]: Solubility of the compound in water at 25 degree C by shake flask method based UV-spectrophotometric method. In kind it is physicochemical.
Data set [15] is described as follows: Toxicity in nude mouse assessed as change in body weight at 0.2 mg/kg administered every 2 days for 21 days. The class given is organism-based. The following applies: in vivo, 48 h, time 2 day.

Each structure is given as a SMILES string. ≈ marks a conversion by molar mass, not a printed value.

The text below walks through data of ChEMBL document CHEMBL5247655, “Simplified Derivatives of Tetrandrine as Potent and Specific P-gp Inhibitors to Reverse Multidrug Resistance in Cancer Chemotherapy” (J Med Chem, 2023).

In general, IC50 refers to the concentration that gives 50% inhibition. The solubility (thermodynamic) is the concentration in solution at equilibrium with solid.

With `COc1cc2c(cc1OC)C(CC1CCCCC1)N(C)CC2` (stereo unspecified), in data set [1], the Activity was 89.9%. The “fold change (FC)” value in data set [2] is 3.7.
On the same counts, the results for `COc1cc(CC2c3cc(OC)c(OC)cc3CCN2C)ccc1O` (stereo unspecified) are 90.3% and 2.8.
`CN1CCc2cc(Br)ccc2C1=O` had an Activity in data set [1] of 88.6%. Besides, in data set [2], the “fold change (FC)” value was found to be 2.
For `CCOc1ccc(CC2c3cc(OC)c(OC)cc3CCN2C)cc1OC` (stereo unspecified), in that order: 88% and 11.7.
For `COc1cc(Br)c(CC2c3cc(OC)c(OC)cc3CCN2C)cc1OC` (stereo unspecified), in that order: 93.4% and 16.
On the same counts, the results for `COc1cc2c(cc1OC)C(Cc1ccc(OC)c(OCCC3CCCCC3)c1)N(C)CC2` (stereo unspecified) are 81% and 143.3.
The compound `COc1ccc(CC2c3cc(OC)c(OC)cc3CCN2C)cc1OC` (stereo unspecified) [LAUDANOSINE] registered an Activity in [1] of 90.7%. In addition, the “fold change (FC)” value in [2] was determined as 12.9.
In data set [1], `COc1cc2c(cc1OC)C(Cc1ccc3c(c1)OCO3)N(C)CC2` (stereo unspecified) displayed an Activity of 90.8%. Besides, the “fold change (FC)” value in data set [2] is 5.
For `COc1cc2c(cc1OC)C(Cc1ccc(Br)cc1)N(C)CC2` (stereo unspecified), in that order: 92.8% and 1.6.
For `COc1cc2c(cc1OC)C(Cc1ccc(C#N)cc1)N(C)CC2` (stereo unspecified), in that order: 99.8% and 3.6.
For `COc1cc2c(cc1OC)C(Cc1ccc(OC)c(OCCC(C)C)c1)N(C)CC2` (stereo unspecified), in that order: 87.1% and 205.7.
On to `COc1cc2c(cc1OC)C(Cc1ccc(Cl)cc1)N(C)CC2` (stereo unspecified), for which, in data set [1], the Activity stood at 93%. Moreover, in [2], the “fold change (FC)” value came to 8.6.
On the same counts, the results for `COc1cc2c(cc1OC)C(Cc1ccccc1O)N(C)CC2` (stereo unspecified) are 98.9% and 7.1.
As for `COc1ccc2cc1Oc1ccc(cc1)C[C@H]1c3c(cc4c(c3Oc3cc5c(cc3OC)CCN(C)[C@@H]5C2)OCO4)CCN1C` [CEPHARANTHINE], the IC50 in [3] turned out to be 437 nM. In addition, the “fold change (FC)” value in [4] came to 15.6.
As for `COc1cc2c(cc1OC)CN(CCc1ccc(NC(=O)c3cc(OC)c(OC)cc3NC(=O)c3cnc4ccccc4c3)cc1)CC2` [TARIQUIDAR], the Activity is 85.9% in data set [1] and “Active” in data set [5]. For the same compound, the “fold change (FC)” value in [2] was determined as 187.4.
With `COc1cc2c(cc1OC)C(Cc1ccc(C(F)(F)F)cc1)N(C)CC2` (stereo unspecified), the Activity in data set [1] was 91.7%. Further, the “fold change (FC)” value in data set [2] is 3.5.
For `COc1cc2c(cc1OC)C(Cc1cccc(O)c1)N(C)CC2` (stereo unspecified), in that order: 99.2% and 4.3.
On the same counts, the results for `CCC1c2cc(OC)c(OC)cc2CCN1C` (stereo unspecified) are 90.6% and 4.2.
In [1], `COc1cc2c(cc1OC)CN(C)CC2` had an Activity of 90.9%. Also, in data set [2], the “fold change (FC)” value is 7.7.
For `CCOC(=O)CCCOc1cc(CC2c3cc(OC)c(OC)cc3CCN2C)ccc1OC` (stereo unspecified), in that order: 86.7% and 219.3.
On the same counts, the results for `COc1cc2c(cc1OC)C(Cc1ccc(OC)c(OCC3CCOCC3)c1)N(C)CC2` (stereo unspecified) are 94.4% and 126.8.
On the same counts, the results for `COc1cc2c(cc1OC)C(c1ccc(O)cc1)N(C)CC2` (stereo unspecified) are 87.7% and 1.8.
The compound `COc1cc2c(cc1OC)C(Cc1ccc(I)cc1)N(C)CC2` (stereo unspecified) gave an Activity in data set [1] of 99%. The “fold change (FC)” value in data set [2] is 2.9.
Consider `COc1ccc(C[C@@H]2c3cc(Oc4cc(C[C@@H]5c6cc(OC)c(OC)cc6CCN5C)ccc4O)c(OC)cc3CCN2C)cc1` [NEFERINE], for which the IC50 in data set [3] worked out at 3790 nM. Besides, the “fold change (FC)” value in data set [4] is 1.8.
Compound `COc1cc2c(cc1OC)C(Cc1ccc(OC)c(OCc3ccccc3)c1)N(Cc1ccccc1)CC2` (stereo unspecified) came in with an Activity in data set [1] of 68.8%. The “fold change (FC)” value in [2] stood at 42.7.
For `COc1cc2c(cc1OC)C(Cc1ccc(O)cc1)N(C)CC2` (stereo unspecified), in that order: 98.1% and 2.8.
For `COc1cc2c(cc1OC)C(C)N(C)CC2` (stereo unspecified), in that order: 91.1% and 2.6.
For `COc1cc2c(cc1OC)C(Cc1ccc([N+](=O)[O-])cc1)N(C)CC2` (stereo unspecified), in that order: 87.1% and 2.3.
In data set [1], `COc1cc2c(cc1OC)C(Cc1ccccc1Cl)N(C)CC2` (stereo unspecified) gave an Activity of 96.3%. In addition, in data set [2], the “fold change (FC)” value came to 13.4.
In the case of `COc1cc2c(cc1OC)C(Cc1ccc(F)cc1)N(C)CC2` (stereo unspecified), the Activity in data set [1] stood at 99.3%. In addition, in [2], the “fold change (FC)” value turned out to be 2.8.
For `COc1cc2c(cc1OC)C(Cc1ccccc1)N(C)CC2` (stereo unspecified), in that order: 93.7% and 4.4.
For `COc1ccc(CC2c3cc(OC)c(OC)cc3CCN2C)cc1` (stereo unspecified), in that order: 96.3% and 7.4.
As for `CN1CCc2ccccc2C1=O`, in data set [1], the Activity is 91.3%. The “fold change (FC)” value in [2] was 2.5.
For the compound `COc1ccc(CCN(C)CCCC(C#N)(c2ccc(OC)c(OC)c2)C(C)C)cc1OC` (stereo unspecified) [VERAPAMIL], the Activity in data set [1] was 95.6%; in [7], 2.65%; in data set [8], 7.92%; in data set [9], 0.12%; in data set [11], 20.3%; in data set [12], 10.5%. The Activity in data set [13] worked out at 0.48%. Also, the “fold change (FC)” value in data set [2] and in [4] was 10.1 each time. Also, the IC50 in [3] was 679 nM. Also, the viability at 5 µM came to 89.3% in data set [6] and 68.8% in [10].
For the compound `COc1cc2c(cc1OC)C(CC(F)(F)F)N(C)CC2` (stereo unspecified), the Activity in [1] was 88.2%. Also, the “fold change (FC)” value in [2] is 3.
As to `COc1cc2c(cc1OC)C(=O)N(C)CC2`, the Activity in [1] is given as 98.4%. In data set [2], the “fold change (FC)” value is recorded as 3.2.
On the same counts, the results for `COc1cc2c(cc1OC)C(CC(C)C)N(C)CC2` (stereo unspecified) are 96.1% and 3.3.
Take `COc1cc2c(cc1OC)C(Cc1ccc(C)cc1)N(C)CC2` (stereo unspecified): in data set [1], the Activity is 95.9%. In addition, in [2], the “fold change (FC)” value amounted to 4.5.
The compound `COc1cc2c(cc1OC)C(Cc1cccc(Cl)c1)N(C)CC2` (stereo unspecified) registered an Activity in data set [1] of 89%. Besides, in data set [2], the “fold change (FC)” value is reported as 23.6.
Turning to `COc1ccc2cc1Oc1ccc(cc1)C[C@H]1c3cc(c(OC)cc3CCN1C)Oc1c(OC)c(OC)cc3c1[C@H](C2)N(C)CC3` [FANCHININ], the Activity in [1] was found to be 87.1%; in data set [7], 3.68%; in [8], 8.01%; in [9], 0.15%; in data set [11], 18.8%; in data set [12], 13.1%. The Activity in data set [13] stood at 0.54%. Besides, the “fold change (FC)” value in data set [2] and in [4] was 232.6 throughout. Moreover, the solubility (thermodynamic) in data set [14] was found to be 14.6 µg/mL (≈ 23.4 µM). Also, the IC50 in [3] is 29.4 nM. For the same compound, the viability at 5 µM in data set [6] is 88.2%; in data set [10], 67.5%.
In data set [1], `COc1ccc(CC2c3cc(OC)c(OC)cc3CCN2C)cc1O` (stereo unspecified) showed an Activity of 903%. The “fold change (FC)” value in data set [2] came to 2.5.
As to `COc1cc2c(cc1OC)C(Cc1ccc(OCCC3CCCCC3)c(OC)c1)N(C)CC2` (stereo unspecified), the Activity in data set [1] amounted to 54.3%. Also, in data set [2], the “fold change (FC)” value was determined as 166.4.
For `COc1cc2c(cc1OC)C1Cc3ccc(OC)c(O)c3CN1CC2` (stereo unspecified), in that order: 74.2% and 1.2.
Consider `CC[C@]1(O)C[C@H]2CN(CCc3c([nH]c4ccccc34)[C@@](C(=O)OC)(c3cc4c(cc3OC)N(C=O)[C@H]3[C@@](O)(C(=O)OC)[C@H](OC(C)=O)[C@]5(CC)C=CCN6CC[C@]43[C@@H]65)C2)C1` [VINCRISTINE], for which the Activity entry in data set [15] is “Non-Toxic”.
`COc1cc2c(cc1OC)C(Cc1ccc(OC)c(OCC3CCCCC3)c1)N(C)CC2` (stereo unspecified) yielded an Activity in data set [1] of 88.1%. The “fold change (FC)” value in data set [2] is reported as 140.3.
